The test has as its target Cav2.3 (Homo sapiens, UniProt Q15878). The experiment in a line: Human Cav2.3 channel calcium-influx assay. The format is cell-based. As to conditions: HEK-293 T-Rex/Kir2.1/Cav2.3e-β4-α2δ1 cells, Fluo8 fluorescence, without pluronic acid; read-out: Cav2.3 (pIC50) (converted). The method, then: HEK-293 T-Rex cells were transfected with pcDNA3.1-Kir2.1 to generate a stable cell line. After antibiotic selection, the obtained stable pools were analysed using FLIPR^TETRA (membrane potential assay), and a limiting dilution was performed and a HEK-293 T-Rex/Kir2.1 clone was selected. The clone was transfected with pcDNA3.1-Cav2.3e and pBud-Cav-β4-α2δ1 to generate a stable cell line where the Cav2.3e expression is inducible. After antibiotic selection, functional clone pool analysis and two successive limiting dilutions, the final clone underwent a qPCR analysis and a biophysical and pharmacological validation using patch-clamp.
A compound plate, containing 10 test compounds in eight-points dose response with n=4, was prepared. Test compounds dose response curves were prepared in automated fashion in 100% DMSO at CyBio Felix and starting from a stock solution in 100% DMSO; a defined volume was serially moved into destination wells pre-filled with the desired DMSO volume; stock solution concentration volumes were dependent on the final compounds concentrations to be tested and the final DMSO content used in the assay. For the assay test compounds dose response curves ranged from 30 μM and half log dilution with 0.3% final DMSO. In order to obtain the 8-points dose response curve all the concentrations were created by starting from a 10 mM DMSO stock solution and then moving 9.5 μL into a destination well pre-filled with 20.5 μL of 100% DMSO and repeating this step seven times. This initial step was done into 96 MTP plates, 10 compounds/plate. One 384 MTP was then reformatted to contain all the 10 compounds at 8 concentrations, quadruplicate data points. This so obtained 384 MTP compound plate served as source plate in a “mother to child” process with a CyBi®-Well dispenser in which 0.7 μL of compounds were moved into a destination plate pre-filled with 57.6 μL of Tyrode's buffer 0 mM K+, thus obtaining 4× concentrated compounds solution. In columns 1-2 and 23-24 the control wells were added. Both “source” compound plate and “destination” compound plate were barcoded and a relationship between the two plates was thus generated.
The day before the experiment, cells were detached by gentle wash with DPBS, followed by 5 min incubation at 37° C. with Trypsin solution. Detached cells were diluted with OptiMEM+Doxycycline at 0.2 μg/mL, counted and plated in Poly-D-Lysine coated black/clear bottom (15.000 c/well in 20 μl/well) by the use of a MATRIX WellMate dispenser. Plates were placed into a humidified incubator at 37° C. with 5% CO2 until the experimental day. 24 h after seeding 10 μL/well of 1.5× Fluo8 NW dye solution prepared in Tyrode's buffer 0 mM K^+ were added on top of the seeding medium. Cell plates were incubated for 40-60 min at RT in the dark. We then Injected off-line 10 μL/well of test compounds and controls 4× concentrated in Tyrode's Buffer 0 mM K+ with the CyBi®-Well instrument. Cell plates were incubated 3 minutes at RT. Finally, we injected 20 μL/well of 3× concentrated activator solution (K20-Na130-Ca2 buffer: 20 mM KCl, 130 mM NaCl, 2 mM CaCl2, 10 mM HEPES, 10 mM Glucose, final concentrations, prepared starting from “KO-Na150-Ca2” and “K150-Na0-Ca2” buffers) at FDSS7000EX instrument and read emitted fluorescence for 130 seconds.
Data analysis was performed with Genedata Screener® software and reported compounds activity as % effect in relation to the normalization standards. The Kinetic Response Value (KRV) is calculated as follows:
KRV=Maximal fluorescence recorded from second 5 to second 130 minus baseline fluorescence, computed as average from second 1 to second 2, of the kinetic trace. The KRV was normalized versus Neutral Controls and Inhibitor Controls in order to obtain the Activity[%] for each well. […] Therefore, the compound activity values were scaled (based on the two references) to a common range (two-point normalization). […]

The structures appear in SMILES notation.

Chain of Cav2.3 (Q15878 1-747 limits assumed): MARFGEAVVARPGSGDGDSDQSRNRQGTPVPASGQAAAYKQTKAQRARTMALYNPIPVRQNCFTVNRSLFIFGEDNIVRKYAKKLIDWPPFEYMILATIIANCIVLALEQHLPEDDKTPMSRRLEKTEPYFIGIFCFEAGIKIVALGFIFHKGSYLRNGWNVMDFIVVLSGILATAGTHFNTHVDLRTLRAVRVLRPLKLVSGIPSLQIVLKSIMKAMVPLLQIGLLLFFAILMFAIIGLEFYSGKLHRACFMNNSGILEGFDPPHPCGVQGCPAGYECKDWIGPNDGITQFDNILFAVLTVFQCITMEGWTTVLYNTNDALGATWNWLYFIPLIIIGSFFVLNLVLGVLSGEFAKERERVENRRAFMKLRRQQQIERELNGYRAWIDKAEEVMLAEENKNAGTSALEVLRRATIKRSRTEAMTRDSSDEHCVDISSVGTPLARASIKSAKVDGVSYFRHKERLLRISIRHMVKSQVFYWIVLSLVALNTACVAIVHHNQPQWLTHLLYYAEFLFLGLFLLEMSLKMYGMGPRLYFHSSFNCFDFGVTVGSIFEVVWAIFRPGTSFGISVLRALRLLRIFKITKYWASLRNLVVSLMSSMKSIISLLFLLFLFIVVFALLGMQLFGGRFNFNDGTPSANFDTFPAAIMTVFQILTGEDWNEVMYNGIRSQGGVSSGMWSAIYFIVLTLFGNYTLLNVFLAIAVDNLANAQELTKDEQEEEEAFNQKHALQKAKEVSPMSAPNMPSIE
Chain of Cav2.3 (Q15878 1126-2313 limits assumed): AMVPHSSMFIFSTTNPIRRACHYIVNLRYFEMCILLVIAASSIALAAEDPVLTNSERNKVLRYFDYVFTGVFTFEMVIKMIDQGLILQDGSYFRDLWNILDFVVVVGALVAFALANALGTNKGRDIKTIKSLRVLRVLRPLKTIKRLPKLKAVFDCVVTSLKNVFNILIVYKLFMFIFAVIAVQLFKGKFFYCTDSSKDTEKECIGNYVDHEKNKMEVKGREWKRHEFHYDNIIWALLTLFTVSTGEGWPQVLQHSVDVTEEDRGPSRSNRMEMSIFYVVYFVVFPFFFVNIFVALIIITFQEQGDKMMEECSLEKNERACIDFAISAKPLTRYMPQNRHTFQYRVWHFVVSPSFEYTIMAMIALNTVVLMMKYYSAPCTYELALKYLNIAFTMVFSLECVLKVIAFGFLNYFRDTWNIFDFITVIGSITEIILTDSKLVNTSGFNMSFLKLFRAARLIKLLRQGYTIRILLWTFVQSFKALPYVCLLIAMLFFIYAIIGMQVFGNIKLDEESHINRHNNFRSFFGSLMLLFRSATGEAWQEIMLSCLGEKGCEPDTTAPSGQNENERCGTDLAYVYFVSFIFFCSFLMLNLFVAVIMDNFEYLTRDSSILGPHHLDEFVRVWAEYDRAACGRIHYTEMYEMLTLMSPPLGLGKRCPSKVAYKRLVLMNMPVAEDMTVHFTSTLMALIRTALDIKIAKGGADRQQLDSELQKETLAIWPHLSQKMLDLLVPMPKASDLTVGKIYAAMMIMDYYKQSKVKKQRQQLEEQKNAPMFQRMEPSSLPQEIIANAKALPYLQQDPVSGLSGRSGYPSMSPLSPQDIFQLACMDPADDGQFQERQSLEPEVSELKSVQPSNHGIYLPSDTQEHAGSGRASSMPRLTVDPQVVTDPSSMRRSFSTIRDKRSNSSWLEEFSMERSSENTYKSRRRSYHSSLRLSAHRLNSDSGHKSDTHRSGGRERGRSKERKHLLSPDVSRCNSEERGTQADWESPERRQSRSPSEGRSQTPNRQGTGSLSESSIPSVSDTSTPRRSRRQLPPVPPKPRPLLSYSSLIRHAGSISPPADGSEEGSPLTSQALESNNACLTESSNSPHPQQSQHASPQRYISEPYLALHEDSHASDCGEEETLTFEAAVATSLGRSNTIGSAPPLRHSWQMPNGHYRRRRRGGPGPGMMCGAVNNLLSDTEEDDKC

Regarding `CC1CC2(CCC2)CN1S(=O)(=O)c1ccc2[nH]c(=O)[nH]c2c1` (stereo not drawn) [Example 59, 5-((7-Methyl-6-azaspiro[3.4]octan-6-yl)sulfonyl)-1,3-dihydro-2H-benzo[d]imidazol-2-one], the IC50 is 11.2 µM.
For the molecule `CCC1CC2(CCC2)CN1S(=O)(=O)c1ccc2ccoc2c1` (stereo not drawn) [Example 91, 6-(Benzofuran-6-ylsulfonyl)-7-ethyl-6-azaspiro[3.4]octane], the IC50 is 2.4 µM.
Take `CC1CC2(CCC2)CN1S(=O)(=O)c1ccc2ccccc2n1` (stereo not drawn) [Example 79, 2-((7-Methyl-6-azaspiro[3.4]octan-6-yl)sulfonyl)quinoline]: the IC50 was 6.31 µM.
The figure for `Cc1noc(C)c1C(=O)N1CCc2ccc(S(=O)(=O)N3CC4(CCC4)CC3C)cc2C1` (stereo not drawn) [Example 93, (3,5-Dimethylisoxazol-4-yl)(7-((7-methyl-6-azaspiro[3.4]octan-6-yl)sulfonyl)-3,4-dihydroisoquinolin-2(1H)-yl)methanone] is 2.04 µM.
As to `CC1CC2(CCC2)CN1S(=O)(=O)c1ccc2c(c1)CN(C(=O)C(F)(F)F)CC2` (stereo not drawn) [Example 18, 2,2,2-Trifluoro-1-(7-((7-methyl-6-azaspiro[3.4]octan-6-yl)sulfonyl)-3,4-dihydroisoquinolin-2(1H)-yl)ethan-1-one], the IC50 was 2.45 µM.
Turning to `Cc1cnc(S(=O)(=O)N2CC3(CCC3)CC2C)s1` (stereo not drawn) [Example 95, 5-Methyl-2-((7-methyl-6-azaspiro[3.4]octan-6-yl)sulfonyl)thiazole], the IC50 is 7.76 µM.
Take `CC1CC2(CCC2)CN1S(=O)(=O)c1ncccn1` (stereo not drawn) [Example 14, 7-Methyl-6-(pyrimidin-2-ylsulfonyl)-6-azaspiro[3.4]octane]: the IC50 was 46.8 µM.
For the molecule `CC1CC2(CCC2)CN1S(=O)(=O)c1ccc2ccoc2c1` (single isomer, unassigned) [Example 16, 6-(Benzofuran-6-ylsulfonyl)-7-methyl-6-azaspiro[3.4]octane], the IC50 is 4.79 µM.
Take `CC(C)C(=O)N1Cc2ccc(S(=O)(=O)N3CC4(CCC4)CC3C)cc2C1` (stereo not drawn) [Example 52, 2-methyl-1-(5-((7-methyl-6-azaspiro[3.4]octan-6-yl)sulfonyl)isoindolin-2-yl)propan-1-one]: the IC50 is 2 µM.
For `CC1CC2(CCCC2)CN1S(=O)(=O)c1cccs1` (stereo not drawn) [Example 73, 3-Methyl-2-(thiophen-2-ylsulfonyl)-2-azaspiro[4.4]nonane] the value was 1.7 µM; for `CC1CC2(CCC2)CN1S(=O)(=O)c1cc(-c2ccccc2)cs1` (stereo not drawn) [Example 44, 7-Methyl-6-((4-phenylthiophen-2-yl)sulfonyl)-6-azaspiro[3.4]octane], 6.76 µM.
For `CC1CC2(CCC2)CN1S(=O)(=O)c1ccncc1` (single isomer, unassigned) [Example 12, 7-Methyl-6-(pyridin-4-ylsulfonyl)-6-azaspiro[3.4]octane], the IC50 was 6.61 µM.
Turning to `Cc1ccnc2cc(S(=O)(=O)N3CC4(CCC4)CC3C)ccc12` (single isomer, unassigned) [Example 81, 4-Methyl-7-((7-methyl-6-azaspiro[3.4]octan-6-yl)sulfonyl)quinoline], the IC50 is 4.57 µM.
As for `CC1CC2(CCC2)CN1S(=O)(=O)c1ccc2c(c1)CCN(Cc1ccccc1)C2` (stereo not drawn) [Example 25, 2-Benzyl-6-((7-methyl-6-azaspiro[3.4]octan-6-yl)sulfonyl)-1,2,3,4-tetrahydroisoquinoline], the IC50 is 2.95 µM.
For `CC1CC2(CCC2)CN1S(=O)(=O)c1ccc2c(c1)COC2` (stereo not drawn) [Example 65, 6-((1,3-Dihydroisobenzofuran-5-yl)sulfonyl)-7-methyl-6-azaspiro[3.4]octane], the IC50 was 3.98 µM.
Take `COCc1ncsc1S(=O)(=O)N1CC2(CCC2)CC1C` (stereo not drawn) [Example 89, 4-(Methoxymethyl)-5-((7-methyl-6-azaspiro[3.4]octan-6-yl)sulfonyl)thiazole]: the IC50 was 10 µM.
For `Cc1ccc(S(=O)(=O)N2CC3(CCC3)CC2C)o1` (stereo not drawn) [Example 53, 7-Methyl-6-((5-methylfuran-2-yl)sulfonyl)-6-azaspiro[3.4]octane] the value was 4.9 µM; for `CC1(C)CC2(CCC2)CN1S(=O)(=O)c1ccsc1` [Example 49, 7,7-Dimethyl-6-(thiophen-3-ylsulfonyl)-6-azaspiro[3.4]octane], 3.89 µM; for `CC1CC2(CCC2)CN1S(=O)(=O)c1cncs1` (stereo not drawn) [Example 109, 5-((7-Methyl-6-azaspiro[3.4]octan-6-yl)sulfonyl)thiazole], 3.98 µM.
In the case of `CC1CC2(CCC2)CN1S(=O)(=O)c1ccccn1` (stereo not drawn) [Example 48, 7-Methyl-6-(pyridin-2-ylsulfonyl)-6-azaspiro[3.4]octane], the IC50 is 15.8 µM.
With `CC1CC2(CCC2)CN1S(=O)(=O)c1ccc2c(c1)OCCCO2` (stereo not drawn) [Example 4, 6-((3,4-Dihydro-2H-benzo[b][1,4]dioxepin-7-yl)sulfonyl)-7-methyl-6-azaspiro[3.4]octane], the IC50 was 4.17 µM.
Regarding `CC1CC2(CCC2)CN1S(=O)(=O)c1scnc1CO` (stereo not drawn) [Example 90, (5-((7-Methyl-6-azaspiro[3.4]octan-6-yl)sulfonyl)thiazol-4-yl)methanol], the IC50 was 11.2 µM.
`CC1CC2(CCC2)CN1S(=O)(=O)c1ccc2c(c1)OCCO2` (single isomer, unassigned) [Example 6, 6-((2,3-Dihydrobenzo[b][1,4]dioxin-6-yl)sulfonyl)-7-methyl-6-azaspiro[3.4]octane]: the IC50 is 7.24 µM.
For `CCC1CC2(CCC2)CN1S(=O)(=O)c1ccc2c(c1)S(=O)(=O)CC2` (single isomer, unassigned) [Example 63, 6-((7-ethyl-6-azaspiro[3.4]octan-6-yl)sulfonyl)-2,3-dihydrobenzo[b]thiophene 1,1-dioxide], the IC50 was 5.62 µM.
Turning to `CC1CC2(CCC2)CN1S(=O)(=O)c1ccco1` (stereo not drawn) [Example 36, 6-(Furan-2-ylsulfonyl)-7-methyl-6-azaspiro[3.4]octane], the IC50 is 5.25 µM.
As for `CCOc1cc(S(=O)(=O)N2CC3(CCC3)CC2C)ccn1` (stereo not drawn) [Example 88, 6-((2-Ethoxypyridin-4-yl)sulfonyl)-7-methyl-6-azaspiro[3.4]octane], the IC50 is 2.51 µM.
`CC1CC2(CCC2)CN1S(=O)(=O)c1ccccc1` (stereo not drawn) [Example 45, 7-Methyl-6-(phenylsulfonyl)-6-azaspiro[3.4]octane]: the IC50 is 3.39 µM.
As for `CC1CC2(CCC2)CN1S(=O)(=O)c1ccc2c(c1)OCCO2` (stereo not drawn) [Example 5, 6-((2,3-Dihydrobenzo[b][1,4]dioxin-6-yl)sulfonyl)-7-methyl-6-azaspiro[3.4]octane], the IC50 is 2.95 µM.
On to `O=S(=O)(c1cccs1)N1CC2(CCC2)CC1CO` (stereo not drawn) [Example 42, (6-(Thiophen-2-ylsulfonyl)-6-azaspiro[3.4]octan-7-yl)methanol], for which the IC50 was 24.5 µM.
For `COc1cc(S(=O)(=O)N2CC3(CCC3)CC2C)ccn1` (stereo not drawn) [Example 86, 6-((2-Methoxypyridin-4-yl)sulfonyl)-7-methyl-6-azaspiro[3.4]octane], the IC50 was 1.35 µM.
For `CCC1CC2(CCC2)CN1S(=O)(=O)c1ccc2ccsc2c1` (stereo not drawn) [Example 35, 6-(Benzo[b]thiophen-6-ylsulfonyl)-7-ethyl-6-azaspiro[3.4]octane], the IC50 was 3.8 µM.
As to `CC1CC2(CCC2)CN1S(=O)(=O)c1ccc(C#N)s1` (stereo not drawn) [Example 8, 5-((7-Methyl-6-azaspiro[3.4]octan-6-yl)sulfonyl)thiophene-2-carbonitrile], the IC50 was 2.57 µM.
The figure for `CC1CC2(CCC2)CN1S(=O)(=O)c1cccs1` (single isomer, unassigned) [Example 103, 7-Methyl-6-(thiophen-2-ylsulfonyl)-6-azaspiro[3.4]octane] is 8.32 µM.

Source of the values: US20250101003A1, “SPIROCYCLIC CAV2.3 ANTAGONISTS” (LARIO THERAPEUTICS LIMITED, priority 2021, published 2025).
